{"source": "a melting point compilation (Tetko et al.; mined from patent text by program, amines drawn as free bases though some values may be those of a salt)"}
{"units": {"melting point": "°C"}}
{"smiles": "ClC(=NNc1c(Cl)cc(Cl)cc1Cl)c1ccc(Cl)cc1", "melting point": "123 to 124"}
{"smiles": "CCOC(=O)COc1cc(C)c(C)c2c1CCC2=O", "melting point": "100 to 101"}
{"smiles": "Cc1ccc(Cc2cnc(NCCCCc3ncc(Br)cc3N)[nH]c2=O)cn1", "melting point": "196 to 197"}
{"smiles": "CCOC(=O)C(=CN(C)C)C(=O)Nc1ccc(Br)cc1C", "melting point": "88 to 90"}
{"smiles": "COc1cc2c(cc1OC)C(c1ccccc1)=NC(c1cccnc1)C2", "note": "(stereo not drawn)", "melting point": "180 to 182"}
{"smiles": "CCOC(=O)CCCCCCC(=O)c1ccc2cc(OC)ccc2c1", "melting point": "77 to 78"}
{"smiles": "N#CCC(=O)OC(COc1ccc(C(=O)c2ccccc2)c(O)c1)COc1ccc(C(=O)c2ccccc2)c(O)c1", "melting point": "167 to 168"}
{"smiles": "Cc1cc2c(cc1OCCn1ccnc1)CC/C(=C\\c1cccs1)C2=O", "melting point": "150 to 151"}
{"smiles": "Cc1cc(Cl)n2nc(CN=[N+]=[N-])nc2n1", "melting point": "130 to 132"}
{"smiles": "Cc1cc(C2=CC3(CC(C)(C)C2CO)SCCCS3)ccc1F", "note": "(stereo not drawn)", "melting point": "128 to 129"}
{"smiles": "CCCc1cc2c(=O)n3cc(C#N)ccc3nc2s1", "melting point": "217 to 218"}
{"smiles": "CCCCCCCCOC(=O)CCP(=O)(CCC(N)=O)Cc1cc(C(C)(C)C)c(O)c(C(C)(C)C)c1", "note": "(stereo not drawn)", "melting point": "154 to 157"}
{"smiles": "COc1ccc(CNc2ccc(Cl)cc2C(=O)C(F)(F)F)cc1OC", "melting point": "82 to 84"}
{"smiles": "O=C(O)CCc1ccnc(-c2nc(=O)c3ccccc3s2)c1", "melting point": "215 to 216"}
{"smiles": "O=Cc1c(Cl)cccc1OC[C@H]1CO1", "melting point": "62 to 64"}
{"smiles": "O=C(O)c1ccccc1Nc1c(O)ccc2ccccc12", "melting point": "214 to 217"}
{"smiles": "CC(n1ccnc1)C1(c2ccc(Cl)cc2Cl)SCCS1", "note": "(stereo not drawn)", "melting point": 142}
{"smiles": "COc1cccc(C2(C(N)=O)CCC3(CC2)OCCO3)c1", "melting point": "135 to 138"}
{"smiles": "CC(C)(Cc1ccccc1)C(=O)Cn1cncn1", "melting point": 79}
{"smiles": "COC(=O)Cc1ccc2oc(=S)[nH]c2c1", "melting point": "120 to 122"}
{"smiles": "COc1ccc(CCOc2cc(-c3cccc(C(=O)O)c3)ccn2)cc1OC", "melting point": "148 to 149"}
{"smiles": "Cc1c(OCc2ccc(F)cc2F)cc(C)n(C2CCCCC2)c1=O", "melting point": "118 to 120"}
{"smiles": "N#CC=C1CCN(c2ccc(N3C[C@H](CNC(=O)CC#N)OC3=O)cc2F)CC1", "melting point": "150 to 152"}
{"smiles": "CN1CCC(c2cn(S(=O)(=O)c3c(F)cccc3F)c3ccc(OS(=O)(=O)c4c(F)cccc4F)cc23)CC1", "melting point": "95 to 98"}
{"smiles": "CC(=O)c1ccc(NC(=O)NN2CC=CCC2)cc1", "melting point": "142 to 143"}
{"smiles": "CC(=O)N1CCC(Oc2cccc(C(F)(F)F)c2)(c2ccccc2)CC1", "melting point": "100 to 103"}
{"smiles": "COC(=O)c1cc2c3cc(C(C)=O)ccc3n(C)c2s1", "melting point": "196 to 198"}
{"smiles": "O=S(=O)(c1ccc(Cl)cc1)c1ccc(Cl)s1", "melting point": 108}
{"smiles": "CCOC(=O)CC1Nc2ccccc2CC(N)C1=O", "note": "(stereo not drawn)", "melting point": "71 to 73"}
{"smiles": "CC(C)CCCC(C)C1CCC2C3=CC=C4CC(O)C=CC4(C)C3CCC21C", "note": "(stereo not drawn)", "melting point": "126 to 127"}
{"smiles": "O=C(NCN1CCN(c2ccccc2Cl)CC1)c1ccccc1", "melting point": "145 to 147"}
{"smiles": "O=C(CC(Cc1ccccc1)C(=O)O)c1ccc(F)cc1", "note": "(single isomer, unassigned; (+))", "melting point": 88}
{"smiles": "COc1ccc(N2CCN(C)CC2)c2c1CCC(C(=O)Nc1ccc(N3CCOCC3)cc1)C2", "note": "(stereo not drawn)", "melting point": "230 to 232"}
{"smiles": "CCOC(=O)NC1CCCCn2c1nc(-c1ccncn1)cc2=O", "note": "(stereo not drawn)", "melting point": "168 to 170"}
{"smiles": "O=S(=O)(NCCCCOc1ccc(-n2ccnc2)cc1)c1cc(Cl)ccc1Cl", "melting point": "144 to 146"}
{"smiles": "O=C(O)c1cc2cc(Br)cc(Br)c2nc1NC(Cc1ccccc1)C(=O)O", "note": "(stereo not drawn)", "melting point": "115 to 117"}
{"smiles": "CN(C)CCCCNC(=O)Cn1ncc(-c2ccccc2)c1-c1ccccc1", "melting point": "77 to 79"}
{"smiles": "CCCCc1cn2ccccc2c1S(=O)(=O)c1ccc(OS(=O)(=O)c2ccc(C)cc2)cc1", "melting point": 145}
{"smiles": "COc1ccc(Cl)cc1-c1c(N)c(=O)[nH]c2cc(Cl)cc(Cl)c12", "melting point": "284 to 287"}
{"smiles": "CCOC(=O)C(=Cc1cccn2cc(C(F)(F)F)nc12)N=[N+]=[N-]", "melting point": "140 to 142"}
{"smiles": "C[C@H](O)C(=O)Nc1ccccn1", "melting point": "102 to 104"}
{"smiles": "O=C(COc1ccc(C(=O)C(=O)O)cc1)NC1CCCCCCC1", "melting point": "139 to 140"}
{"smiles": "Cc1ncn(-c2nc(C(=O)NCc3ccc(F)c(C)c3)c(O)c(=O)n2C)n1", "melting point": "204 to 205"}
{"smiles": "Cc1nc(NN)c2c(n1)NC(=O)CO2", "melting point": "262 to 264"}
{"smiles": "CCOC(=O)NC(=O)n1sc(OCC)nc1=O", "melting point": 119}
{"smiles": "COc1ccc(OC2CN(S(=O)(=O)c3ccc(C)cc3)CCc3ccccc32)cc1", "note": "(stereo not drawn)", "melting point": "84 to 85"}
{"smiles": "CCc1cc(=O)c(C(N)=O)c(CC)[nH]1", "melting point": 254}
{"smiles": "Cn1ncc2[nH]c3cccc(-c4ccc(O)cc4)c3c(=O)c21", "melting point": "> 300"}
{"smiles": "CCCCCCCCCCCCNC(N)=O", "melting point": "105 to 107"}
{"smiles": "CCc1cc2c(s1)-n1c(Cl)nnc1CN=C2c1ccccc1Cl", "melting point": "133 to 135"}
{"smiles": "CCCn1cc(Cc2ccc(C(=O)NS(=O)(=O)c3ccccc3Cl)cc2OC)c2cc(CCC(C)C(=O)N(C)C)ccc21", "note": "(stereo not drawn)", "melting point": "95 to 98"}
{"smiles": "Clc1ccc(N2CC=C(COc3ccc(C4=NCCO4)cc3)CC2)nn1", "melting point": 176}
{"smiles": "Fc1ccc(-c2nc3ccc(N4CCC(N5CCCC5)CC4)nn3c2-c2ccnc3[nH]ccc23)cc1", "melting point": "261 to 264"}
{"smiles": "Cn1c(CCCCl)nc2ccc3ccccc3c21", "melting point": "246 to 248"}
{"smiles": "CC(C)C(=O)NC(c1ccc(Br)cc1)C(F)(F)F", "note": "(stereo not drawn)", "melting point": "176 to 178"}
{"smiles": "CC(=O)Nc1nc(CCc2ccc(CCN3CCN(C(=O)OC(C)(C)C)CC3)cc2)cs1", "melting point": "178 to 179"}
{"smiles": "COc1nc2cc(Br)c(Br)c(NS(C)(=O)=O)c2nc1OC", "melting point": "186 to 187"}
{"smiles": "Nc1nc(-c2ccc(Cl)cc2)nc(N2CCCC2)n1", "melting point": "217 to 219"}
{"smiles": "CS(=O)(=O)c1nccc(-c2c(-c3ccc(F)cc3)nc3sccn23)n1", "melting point": "197 to 198"}
{"smiles": "Cc1c2c(c(Cc3ccc(C(C)C)cc3)c(C)c1NC(=O)NC(C)(C)C)OCC2", "melting point": "197 to 198"}
{"smiles": "O=c1[nH]ncc(Cl)c1-c1ccccc1", "melting point": "193 to 195"}
{"smiles": "Cc1nc2c([N+](=O)[O-])cc(Br)cc2n1C", "melting point": "193 to 195"}
{"smiles": "NC(=O)c1cc(C(c2c(F)ccc(F)c2F)S(=O)(=O)CCC(F)(F)F)c(Cl)cn1", "note": "(stereo not drawn)", "melting point": "237 to 239"}
{"smiles": "CC(C)(C)N1CC(c2cc(Cl)c(N)c(Cl)c2)OC1=O", "note": "(stereo not drawn)", "melting point": "97 to 103"}
{"smiles": "CCCCCCCCCC1C=CC(Oc2ccc(C(=O)O)o2)=C2N=C3CCCCC3=C21", "note": "(stereo not drawn)", "melting point": "130 to 132"}
{"smiles": "Cc1ccc(S(=O)(=O)ON=C2CCCc3occ(C(=O)O)c32)cc1", "melting point": "155 to 165"}
{"smiles": "COc1ccc(NC(=O)C(F)(F)F)cc1C12CC3CC(CC(C3)C1)C2", "melting point": "166 to 167"}
{"smiles": "Cc1ccc(OC(=O)c2cccc(C(=O)Oc3ccc(C)cc3-n3nc4ccccc4n3)c2)c(-n2nc3ccccc3n2)c1", "melting point": "115 to 118"}
{"smiles": "COc1cc(C=O)c(OC)cc1Cl", "melting point": 109}
{"smiles": "CC(C)n1nc(-c2sc(C(=O)N3CCOCC3)nc2-c2ccccc2)ccc1=O", "melting point": 162}
{"smiles": "CN(CCN1CCOCC1)c1noc2cc(OC(=O)NCc3ccccc3)ccc12", "melting point": "106 to 107"}
{"smiles": "CNC(=O)[C@@H]1CCC[C@@H]1Nc1nc(Nc2ccc3c(c2)CCN(CCOC)CC3)ncc1Cl", "note": "(relative stereo)", "melting point": 176}
{"smiles": "CC(C)(C)COC(=O)C(C#N)=Cc1cc(O)c(O)c([N+](=O)[O-])c1", "melting point": "173 to 179"}
